Test results taken from patent US20220000786A1, “PHARMACEUTICAL PREPARATION” (KOWA COMPANY, LTD., priority 2018, published 2022).

Experiment: Examination on stability: storage at 40° C. and 75% RH for 1 month, state of sample and composition changes
Assay type: physicochemical
Protocol: Samples 1-1 to 1-4 as shown below were prepared and stored at 40° C. and […] relative humidity (RH) for 1 month.
Pemafibrate as it was placed in a glass vessel with a lid opened, and labeled as Sample 1-1.
Aminoalkyl methacrylate copolymer E (EUDRAGIT EPO: Evonick Rohm GmbH) as it was placed in a glass vessel with a lid opened, and labeled as Sample 1-2.
Aminoalkyl methacrylate copolymer E (EUDRAGIT EPO: Evonick Rohm GmbH) was mixed with pemafibrate in a ratio of 1 part by mass to 1 part by mass of pemafibrate to obtain a mixture. The mixture was placed in a glass vessel with a lid opened, and labeled as Sample 1-3.
Aminoalkyl methacrylate copolymer E (EUDRAGIT EPO: Evonick Röhm GmbH) was mixed with pemafibrate in a ratio of 1 part by mass to 1 part by mass of pemafibrate to obtain a mixture. The mixture was taken in an amount of 0.25 g into a glass bottle (a bottle No. 2K, manufactured by ISOYA GLASS INDUSTRY) and closed with a lid, and labeled as Sample 1-4.

Change of state / presence or absence of composition changes after storage (1 month, start of storage compared with 1 month): maintained the same state
State of mixture, 1 month later (after storage for 1 month, glass vessel with lid opened (1-1 to 1-3) or closed glass bottle (1-4)): White powder
State of mixture, immediately after the start of storage (start of storage, glass vessel with lid opened (1-1 to 1-3) or closed glass bottle (1-4)): White powder
SMILES: CC[C@@H](Oc1cccc(CN(CCCOc2ccc(OC)cc2)c2nc3ccccc3o2)c1)C(=O)O [Sample 1-1, (2R)-2-[3-([1,3-Benzoxazol-2-yl[3-(4-methoxyphenoxy)propyl]amino]methyl)phenoxy]butanoic acid]
